The results in this text go back to patent publication US20260327250A1, “3-ETHYLAMINO-INDOLE DIMERS AS SEROTONERGIC AGENTS USEFUL FOR THE TREATMENT OF DISORDERS RELATED THERETO” (MINDSET PHARMA INC., priority 2022, published 2026).

For one assay, the target named is human 5-HT2A receptor (Homo sapiens, UniProt P28223). The assay is described as follows: Human 5-HT2A radioligand binding assay ([3H]-ketanserin). On the procedure:
The objective of this study was to evaluate the binding properties of exemplary compounds of Formula I on 5-hydroxytryptamine receptor 2A (5-HT2A).
(§1) • 1. The assay buffer was prepared following the table below.
UniFilter-96 GF/B plate was pretreated: • i. 50 μl/well of 0.5% (v/v) PEI was added to UniFilter-96 GF/C plates. The plates were sealed and incubated at 4° C. for 3 hrs. • ii. After incubation, the plates were washed 3 times with ice-cold wash buffer (50 mM Tris, pH7.4). • 4. […] Cell membrane was diluted with assay buffer and 330 μl/well was added to 96 round deep well plates to reach a concentration of 20 μg/well. • ii. 8 concentrations of reference or test compounds were prepared and 110 μl/well was added to 96 round deep well plates. • iii. […] The plate was centrifuged at 1000 rpm for 30 secs and then agitated at 600 rpm, R.T. for 5 min. • 6. […] The filter plates were sealed and 40 μl/well of scintillation cocktail was added. • 10. The plate was read by using a Microbeta^2 microplate counter.
• 1. […] The IC50 was determined by fitting percentage of inhibition as a function of compound concentrations with Hill equation using XLfit.

The next assay deals with T1, human 5-HT1A receptor (Homo sapiens, UniProt P08908).
T1 sequence (P08908 1-422): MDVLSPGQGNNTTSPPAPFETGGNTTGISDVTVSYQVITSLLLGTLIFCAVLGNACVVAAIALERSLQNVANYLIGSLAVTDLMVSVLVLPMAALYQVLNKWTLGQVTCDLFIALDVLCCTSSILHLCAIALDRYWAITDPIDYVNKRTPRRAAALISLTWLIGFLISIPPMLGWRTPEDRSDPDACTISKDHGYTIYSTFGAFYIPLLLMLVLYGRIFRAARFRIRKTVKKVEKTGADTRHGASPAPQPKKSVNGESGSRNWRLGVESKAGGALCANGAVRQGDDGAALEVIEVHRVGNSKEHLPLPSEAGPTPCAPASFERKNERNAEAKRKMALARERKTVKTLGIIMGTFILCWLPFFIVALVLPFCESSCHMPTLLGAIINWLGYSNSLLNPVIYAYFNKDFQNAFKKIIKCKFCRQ
The assay is described as follows: Human 5-HT1A radioligand binding assay ([3H]-8-Hydroxy-DPAT). Here is the method:
The objective of this study was to evaluate the binding properties of test compounds on 5-hydroxytryptamine receptor 1A.
as §1
pH was adjusted to 7.4 followed by […] sterile filtration • 1. 8 doses of reference and test compounds were prepared starting from 10 mM stock solution as required by 5-fold serial dilutions with 100% (v/v) DMSO. • 2. UniFilter-96 GF/B Plate was Pretreated: • i. 50 μl/well of 0.5% (v/v) PEI was added to UniFilter-96 GF/B plates. The plates were sealed and incubated at 4° C. for 3 hrs. • ii. After incubation, the plates were washed 3 times with ice-cold wash buffer (50 mM Tris, pH7.4).
• i. Cell membrane was diluted with assay buffer and 100 μl/well was added to 96 round well plates to reach a concentration of 20 μg/well. • ii. 8 concentrations of reference or test compounds were prepared and 50 μl/well was added to 96 round deep well plates. • iii. [3H]-8-Hydroxy-DPAT was diluted with assay buffer to 2 nM (4× final concentration) and 50 μl/well was added to 96 round well plates. • 4. The plate was centrifuged at 1000 rpm for 30 secs and then agitated at 600 rpm, R.T. for 5 min. • 5. The plates were sealed and the plate was incubated at 27° C. for 90 min. • 6. The incubation was stopped by vacuum filtration onto GF/B filter plates followed by 4 times washing with ice-cold wash buffer (50 mM Tris, pH7.4). • 7. The plates were dried at 37° C. for 45 min. • 8. The filter plates were sealed and 40 μl/well of scintillation cocktail was added. • 9. The plate was read by using a Microbeta^2 microplate counter.
• 1. For reference and test compounds, the results were expressed as % Inhibition, using the normalization equation: N=100-100×(U−C2)/(C1−C2), where U is the unknown value, C1 is the average of high controls, and C2 is the average of low controls. • 2. The IC50 was determined by fitting percentage of inhibition as a […] of compound concentrations with Hill equation using XLfit. Results and Discussion

The mark [1] stands for this setting: [3H]-ketanserin, 27° C., 90 min, read-out: h5-HT2A, IC50.
The mark [2] stands for this setting: [3H]-8-Hydroxy-DPAT, 27° C., 90 min, read-out: h5-HT1A, IC50.

Structures can show the parent of a compound that is named as a salt. Where two headings read alike, the source gives them in different places.

Sequence of human 5-HT2A receptor (P28223 whole entry): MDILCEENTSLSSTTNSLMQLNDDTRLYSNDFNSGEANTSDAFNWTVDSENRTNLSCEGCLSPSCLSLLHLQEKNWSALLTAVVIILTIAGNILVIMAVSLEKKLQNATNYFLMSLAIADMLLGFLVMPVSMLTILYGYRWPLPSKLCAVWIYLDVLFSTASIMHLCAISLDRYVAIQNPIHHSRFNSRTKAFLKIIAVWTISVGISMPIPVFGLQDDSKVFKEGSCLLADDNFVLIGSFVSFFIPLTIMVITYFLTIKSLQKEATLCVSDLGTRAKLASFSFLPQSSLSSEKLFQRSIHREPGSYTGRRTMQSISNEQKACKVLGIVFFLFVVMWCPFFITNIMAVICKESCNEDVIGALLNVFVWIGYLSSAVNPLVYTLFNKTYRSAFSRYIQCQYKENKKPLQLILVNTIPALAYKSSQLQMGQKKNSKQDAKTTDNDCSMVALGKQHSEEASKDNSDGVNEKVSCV

As a reminder, the IC50 is the concentration needed to halve the response being measured. With `CC(C)N(CCc1c[nH]c2cccc(O)c12)C(C)C` [Compound 7], the IC50 was found to be 6.41 µM on human 5-HT2A receptor (setting [1]) and 4.69 µM on human 5-HT1A receptor (setting [2]).
Take `CN(C)CCc1c[nH]c2cccc(OC(=O)CCCC(=O)Oc3cccc4[nH]cc(CCN(C)C)c34)c12` [Compound I-24, Bis(3-(2-(dimethylamino)ethyl)-1H-indol-4-yl) glutarate]: the 50% inhibitory concentration (IC50) on human 5-HT2A receptor (setting [1]) turned out to be 0.127 µM; at human 5-HT1A receptor (setting [2]), 0.336 µM.
`CC(C)N(CCc1c[nH]c2cccc(OC(=O)CCCC(=O)Oc3cccc4[nH]cc(CCN(C(C)C)C(C)C)c34)c12)C(C)C` [Compound I-37, Bis(3-(2-(diisopropylamino)ethyl)-1H-indol-4-yl) glutarate dihydrochloride]: the concentration for half-maximal inhibition (IC50) at human 5-HT2A receptor is 0.547 µM; on human 5-HT1A receptor, 3.96 µM.
Consider `CN(C)CCc1c[nH]c2cccc(OP(=O)(O)O)c12` [Psilocybin], for which, at human 5-HT1A receptor (setting [2]), the half-maximal inhibitory concentration (IC50) was determined as 4.79 µM.
